{"source": "patent US11327083B2", "about": "“Treatment and differential diagnosis of Cushing's disease and ectopic Cushing's syndrome” (Corcept Therapeutics, Inc., priority 2016, dated 2022)", "key": {"[1]": {"tested_on": "patients having Cushing's Disease", "experiment": "Mean plasma cortisol to ACTH (C:A) ratio during mifepristone treatment, patients having Cushing's Disease", "type": "in vivo, human", "description": "(§1) Two groups of patients, which have been previously diagnosed as having Cushing's Disease, Ectopic Cushing's Syndrome using other methods, were enrolled in the study. The investigators were blind to the patients' diagnoses. Blood samples were obtained from each patient within 6 weeks prior to the enrollment in the study (“Day 1” samples). The patients were treated with mifepristone at a starting dose 300 mg daily, increased up to 1200 mg or 20 mg/kg over a period of 10 weeks. The mifepristone treatment continued for a total period of 24 weeks. Blood samples were taken during the course of the treatment, i.e., at the end of 14 days, and 6, 10, 16 and 24 weeks from the initial dose of mifepristone was given. All samples were taken at between 8-10 am on the day of the study. The ACTH levels and the cortisol levels of the plasma produced from the blood samples collected above were assayed using two-site immunometric assays (Mayo Clinic, Test ID ACTH) following the manufacturer's instructions."}, "[2]": {"tested_on": "patients having Ectopic Cushing's Syndrome", "experiment": "Mean plasma cortisol to ACTH (C:A) ratio during mifepristone treatment, patients having Ectopic Cushing's Syndrome", "type": "in vivo, human", "description": "as §1"}, "[3]": {"settings": "CD patients (n = 38), plasma, 8-10 am, mifepristone 300 mg daily increased up to 1200 mg or 20 mg/kg, Day 1 baseline mean 3.018"}, "[4]": {"settings": "Ectopic patients (n = 3), plasma, 8-10 am, mifepristone 300 mg daily increased up to 1200 mg or 20 mg/kg, Day 1 baseline mean 18.552"}}}
{"smiles": "CC#C[C@]1(O)CC[C@H]2[C@@H]3CCC4=CC(=O)CCC4=C3[C@@H](c3ccc(N(C)C)cc3)C[C@@]21C", "note": "[mifepristone, 17-β-hydrox-11-β-(4-dimethyl-aminophenyl)17-α-(1-propynyl)estra-4,9-dien-3-one]", "values": [{"measurement": "mean ratio of cortisol to ACTH, Week 16", "setting": "[1]; CD patients (n = 32), plasma, 8-10 am, mifepristone 300 mg daily increased up to 1200 mg or 20 mg/kg, Day 1 baseline mean 3.018", "value": 5.788}, {"measurement": "mean ratio of cortisol to ACTH, Week 10", "setting": "[1]; CD patients (n = 33), plasma, 8-10 am, mifepristone 300 mg daily increased up to 1200 mg or 20 mg/kg, Day 1 baseline mean 3.018", "value": 6.852}, {"measurement": "mean ratio of cortisol to ACTH, Week 6", "setting": "[1]; [3]", "value": 3.396}, {"measurement": "mean ratio of cortisol to ACTH, Week 24/ET", "setting": "[1]; [3]", "value": 4.999}, {"measurement": "mean GRA-exposed C:A ratio relative to the mean baseline C:A ratio (peak)", "setting": "[1]; Cushing's Disease patients, peak at the end of 10 weeks of mifepristone treatment", "value": "more than 2 fold"}, {"measurement": "mean GRA-exposed C:A ratio as % of the baseline ratio", "setting": "[2]; Ectopic Cushing's Syndrome patients, end of 24 weeks treatment", "value": 11.6, "unit": "%"}, {"measurement": "mean GRA-exposed C:A ratio as % of the mean baseline ratio", "setting": "[2]; Ectopic Cushing's Syndrome patients, end of the six weeks' treatment", "value": "less than 50%"}, {"measurement": "mean ratio of cortisol to ACTH, Week 6", "setting": "[2]; [4]", "value": 9.241}, {"measurement": "mean ratio of cortisol to ACTH, Week 10", "setting": "[2]; [4]", "value": 6.722}, {"measurement": "mean ratio of cortisol to ACTH, Week 16", "setting": "[2]; [4]", "value": 0.600}, {"measurement": "mean ratio of cortisol to ACTH, Week 24/ET", "setting": "[2]; [4]", "value": 2.154}]}
